Data from patent US20080280837A1, “Biologically Active Compounds with Anti-Angiogenic Properties” (priority 2004, published 2008).

Target: T1, Human SST5 somatostatin receptor (SSTR5) (Homo sapiens, UniProt P35346)
T1 construct: expressed in transfected cells; host or cells: HEK-293 EBNA
Assay: Filter plate assay for SST5 receptor, displacement of [125I]SST-14
Assay type: binding
Method in brief: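 HEK-293 EBNA membranes expressing human SST5 (5.5 μg) incubated 60 min at 25 °C with 4 nM [125I]SST-14 and compound in pH 7.5 Tris/EGTA/MgCl2/sucrose buffer. Bound radioactivity collected on PEI-coated glass fiber filters and counted; triplicate 1:5 dilution series from 125 μM, non-specific binding with excess cold ligand.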

T1 sequence (P35346 whole entry): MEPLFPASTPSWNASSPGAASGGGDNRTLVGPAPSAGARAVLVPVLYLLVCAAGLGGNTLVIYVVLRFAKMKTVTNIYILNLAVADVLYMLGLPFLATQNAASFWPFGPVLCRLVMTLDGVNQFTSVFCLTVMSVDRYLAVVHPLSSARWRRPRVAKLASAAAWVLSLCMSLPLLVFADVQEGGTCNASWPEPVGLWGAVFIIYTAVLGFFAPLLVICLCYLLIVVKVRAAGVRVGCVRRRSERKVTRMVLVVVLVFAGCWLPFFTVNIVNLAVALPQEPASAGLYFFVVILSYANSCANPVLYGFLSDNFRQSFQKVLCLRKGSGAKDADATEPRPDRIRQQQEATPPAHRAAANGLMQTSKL

COC[C@H]1OC(OCc2ccc3ccccc3c2)[C@H](NC(=O)CCCN)[C@@H](OCc2ccc(-c3ccccc3)cc2)[C@@H]1O (stereo partly drawn) [Compound 25]
SSTR5 Inhib 0.5 uM % (inhibition of binding of SST-14 to SSTR5): 77%
SSTR5 Inhib 10 uM % (inhibition of binding of SST-14 to SSTR5): 96%

COC[C@H]1OC(OCc2ccc(-c3ccccc3)cc2)[C@H](NC(=O)CCCNC(=N)N)[C@@H](OCc2ccc(-c3ccccc3)cc2)[C@@H]1O (stereo partly drawn) [Compound 130]
SSTR5 Inhib 0.5 uM % (inhibition of binding of SST-14 to SSTR5): 40%
SSTR5 Inhib 10 uM % (inhibition of binding of SST-14 to SSTR5): 80%

COC[C@H]1OC(OCc2ccc(Cl)cc2)[C@H](NC(=O)CCCN)[C@@H](OCc2ccc3ccccc3c2)[C@@H]1O (stereo partly drawn) [Compound 48]
SSTR5 Inhib 0.5 uM % (inhibition of binding of SST-14 to SSTR5): 66%
SSTR5 Inhib 10 uM % (inhibition of binding of SST-14 to SSTR5): 92%

CO[C@H]1[C@H](O)[C@@H](COCc2ccc(-c3ccccc3)cc2)OC(OCc2ccc(Cl)cc2)[C@@H]1NC(=O)CCCNC(=N)N (stereo partly drawn) [Compound 67]
SSTR5 Inhib 0.5 uM % (inhibition of binding of SST-14 to SSTR5): 48%
SSTR5 Inhib 10 uM % (inhibition of binding of SST-14 to SSTR5): 89%

COC[C@H]1OC(OCc2ccc3ccccc3c2)[C@H](NC(=O)CCNC(=N)N)[C@@H](OCc2ccccc2)[C@@H]1O (stereo partly drawn) [Compound 170]
SSTR5 Inhib 0.5 uM % (inhibition of binding of SST-14 to SSTR5): 29%
SSTR5 Inhib 10 uM % (inhibition of binding of SST-14 to SSTR5): 72%

COC[C@H]1OC(OCc2ccc(Cl)cc2)[C@H](NC(=O)CCCNC(=N)N)[C@@H](OCc2ccc(-c3ccccc3)cc2)[C@@H]1O (stereo partly drawn) [Compound 96]
SSTR5 Inhib 0.5 uM % (inhibition of binding of SST-14 to SSTR5): 43%
SSTR5 Inhib 10 uM % (inhibition of binding of SST-14 to SSTR5): 85%

COC[C@H]1OC(OCc2ccc(Cl)cc2)[C@H](NC(=O)CCNC(=N)N)[C@@H](OCc2ccc(-c3ccccc3)cc2)[C@@H]1O (stereo partly drawn) [Compound 101]
SSTR5 Inhib 0.5 uM % (inhibition of binding of SST-14 to SSTR5): 50%
SSTR5 Inhib 10 uM % (inhibition of binding of SST-14 to SSTR5): 84%

CSC1O[C@H](COCc2ccc(-c3ccccc3)cc2)[C@@H](O)[C@@H](OCc2ccc3ccccc3c2)[C@H]1NC(=O)CNC(=N)N (stereo partly drawn) [Compound 139]
SSTR5 Inhib 0.5 uM % (inhibition of binding of SST-14 to SSTR5): 34%
SSTR5 Inhib 10 uM % (inhibition of binding of SST-14 to SSTR5): 79%

COC1C(O)C(COCc2ccc3ccccc3c2)OC(OCc2ccc(Cl)cc2)C1NC(=O)CNC(=N)N (stereo not drawn) [Compound 173]
SSTR5 Inhib 0.5 uM % (inhibition of binding of SST-14 to SSTR5): 47%
SSTR5 Inhib 10 uM % (inhibition of binding of SST-14 to SSTR5): 71%

CSC1O[C@H](COCc2ccc3ccccc3c2)[C@@H](O)[C@@H](OCc2ccccc2)[C@H]1NC(=O)CCN (stereo partly drawn) [Compound 105]
SSTR5 Inhib 0.5 uM % (inhibition of binding of SST-14 to SSTR5): 44%
SSTR5 Inhib 10 uM % (inhibition of binding of SST-14 to SSTR5): 83%

COC[C@H]1OC(OCCc2ccccc2)[C@H](NC(=O)CCCN)[C@@H](OCc2ccc3ccccc3c2)[C@@H]1O (stereo partly drawn) [Compound 44]
SSTR5 Inhib 0.5 uM % (inhibition of binding of SST-14 to SSTR5): 78%
SSTR5 Inhib 10 uM % (inhibition of binding of SST-14 to SSTR5): 94%

COC[C@H]1OC(OCc2ccc(-c3ccccc3)cc2)[C@H](NC(=O)CCCNC(=N)N)[C@@H](OCc2ccc(Cl)cc2)[C@@H]1O (stereo partly drawn) [Compound 93]
SSTR5 Inhib 0.5 uM % (inhibition of binding of SST-14 to SSTR5): 47%
SSTR5 Inhib 10 uM % (inhibition of binding of SST-14 to SSTR5): 86%

CSC1O[C@H](COCc2ccc(Cl)cc2)[C@@H](O)[C@@H](OCc2ccccc2)[C@H]1NC(=O)CCNC(=N)N (stereo partly drawn) [Compound 142]
SSTR5 Inhib 0.5 uM % (inhibition of binding of SST-14 to SSTR5): 44%
SSTR5 Inhib 10 uM % (inhibition of binding of SST-14 to SSTR5): 78%

COC[C@H]1OC(OCc2ccccc2)[C@H](NC(=O)CCNC(=N)N)[C@@H](OCc2ccc(-c3ccccc3)cc2)[C@@H]1O (stereo partly drawn) [Compound 172]
SSTR5 Inhib 0.5 uM % (inhibition of binding of SST-14 to SSTR5): 21%
SSTR5 Inhib 10 uM % (inhibition of binding of SST-14 to SSTR5): 72%

COC[C@H]1OC(OCc2ccc3ccccc3c2)[C@H](NC(=O)CCCN)[C@H](OCc2ccc(-c3ccccc3)cc2)[C@@H]1O (stereo partly drawn) [Compound 43]
SSTR5 Inhib 0.5 uM % (inhibition of binding of SST-14 to SSTR5): 68%
SSTR5 Inhib 10 uM % (inhibition of binding of SST-14 to SSTR5): 94%

COC[C@H]1OC(OCCc2ccccc2)[C@H](NC(=O)CCCN)[C@@H](OCc2ccc3ccccc3c2)[C@@H]1O (stereo partly drawn) [Compound 73]
SSTR5 Inhib 0.5 uM % (inhibition of binding of SST-14 to SSTR5): 56%
SSTR5 Inhib 10 uM % (inhibition of binding of SST-14 to SSTR5): 89%

COC[C@H]1OC(OCc2ccc(Cl)cc2)[C@H](NC(=O)CCNC(=N)N)[C@H](OCc2ccc(-c3ccccc3)cc2)[C@@H]1O (stereo partly drawn) [Compound 99]
SSTR5 Inhib 0.5 uM % (inhibition of binding of SST-14 to SSTR5): 43%
SSTR5 Inhib 10 uM % (inhibition of binding of SST-14 to SSTR5): 84%

COC[C@H]1OC(OCc2ccccc2)[C@H](NC(=O)CCN)[C@H](OCc2ccccc2)[C@@H]1O (stereo partly drawn) [Compound 163]
SSTR5 Inhib 0.5 uM % (inhibition of binding of SST-14 to SSTR5): 34%
SSTR5 Inhib 10 uM % (inhibition of binding of SST-14 to SSTR5): 73%

COC[C@H]1OC(OCc2ccc(-c3ccccc3)cc2)[C@H](NC(=O)CCCNC(=N)N)[C@@H](OCc2ccc3ccccc3c2)[C@@H]1O (stereo partly drawn) [Compound 107]
SSTR5 Inhib 0.5 uM % (inhibition of binding of SST-14 to SSTR5): 54%
SSTR5 Inhib 10 uM % (inhibition of binding of SST-14 to SSTR5): 83%

CO[C@H]1[C@H](O)[C@@H](COCc2ccc(Cl)cc2)OC(OCc2ccc3ccccc3c2)[C@@H]1NC(=O)CCCN (stereo partly drawn) [Compound 143]
SSTR5 Inhib 0.5 uM % (inhibition of binding of SST-14 to SSTR5): 35%
SSTR5 Inhib 10 uM % (inhibition of binding of SST-14 to SSTR5): 78%

COC[C@H]1OC(OCc2ccc3ccccc3c2)[C@H](NC(=O)CCCNC(=N)N)[C@@H](OCc2ccc3ccccc3c2)[C@@H]1O (stereo partly drawn) [Compound 104]
SSTR5 Inhib 0.5 uM % (inhibition of binding of SST-14 to SSTR5): 47%
SSTR5 Inhib 10 uM % (inhibition of binding of SST-14 to SSTR5): 84%

NCCC(=O)N[C@H]1CO[C@H](COCc2ccc(-c3ccccc3)cc2)[C@@H](O)[C@H]1OCc1ccc(Cl)cc1 [Compound 124]
SSTR5 Inhib 0.5 uM % (inhibition of binding of SST-14 to SSTR5): 50%
SSTR5 Inhib 10 uM % (inhibition of binding of SST-14 to SSTR5): 80%

COC[C@H]1OC(OCc2ccccc2)[C@H](NC(=O)CCNC(=N)N)[C@H](OCc2ccc(-c3ccccc3)cc2)[C@@H]1O (stereo partly drawn) [Compound 87]
SSTR5 Inhib 0.5 uM % (inhibition of binding of SST-14 to SSTR5): 43%
SSTR5 Inhib 10 uM % (inhibition of binding of SST-14 to SSTR5): 86%

COC[C@H]1OC(OCc2ccccc2)[C@H](NC(=O)CCCN)[C@H](OCc2ccc(-c3ccccc3)cc2)[C@@H]1O (stereo partly drawn) [Compound 46]
SSTR5 Inhib 0.5 uM % (inhibition of binding of SST-14 to SSTR5): 71%
SSTR5 Inhib 10 uM % (inhibition of binding of SST-14 to SSTR5): 93%

COC[C@H]1OC(OCc2ccc3ccccc3c2)[C@H](NC(=O)CCCNC(=N)N)[C@H](OCc2ccc(Cl)cc2)[C@@H]1O (stereo partly drawn) [Compound 17]
SSTR5 Inhib 0.5 uM % (inhibition of binding of SST-14 to SSTR5): 84%
SSTR5 Inhib 10 uM % (inhibition of binding of SST-14 to SSTR5): 98%

COC[C@H]1OC(OCc2ccc(Cl)cc2)[C@H](NC(=O)CCCN)[C@H](OCc2ccc(Cl)cc2)[C@@H]1O (stereo partly drawn) [Compound 41]
SSTR5 Inhib 0.5 uM % (inhibition of binding of SST-14 to SSTR5): 83%
SSTR5 Inhib 10 uM % (inhibition of binding of SST-14 to SSTR5): 94%

COC[C@H]1OC(OCc2ccc(-c3ccccc3)cc2)[C@H](NC(=O)CCCN)[C@@H](OCc2ccc(-c3ccccc3)cc2)[C@@H]1O (stereo partly drawn) [Compound 80]
SSTR5 Inhib 0.5 uM % (inhibition of binding of SST-14 to SSTR5): 44%
SSTR5 Inhib 10 uM % (inhibition of binding of SST-14 to SSTR5): 88%

CSC1O[C@H](COCc2ccc(Cl)cc2)[C@@H](O)[C@@H](OCc2ccc3ccccc3c2)[C@H]1NC(=O)CCCN (stereo partly drawn) [Compound 153]
SSTR5 Inhib 0.5 uM % (inhibition of binding of SST-14 to SSTR5): 34%
SSTR5 Inhib 10 uM % (inhibition of binding of SST-14 to SSTR5): 76%

CSC1O[C@H](COCc2ccccc2)[C@@H](O)[C@@H](OCc2ccc3ccccc3c2)[C@H]1NC(=O)CCCNC(=N)N (stereo partly drawn) [Compound 91]
SSTR5 Inhib 0.5 uM % (inhibition of binding of SST-14 to SSTR5): 53%
SSTR5 Inhib 10 uM % (inhibition of binding of SST-14 to SSTR5): 86%

COC[C@H]1OC(OCc2ccc3ccccc3c2)[C@H](NC(=O)CCNC(=N)N)[C@H](OCc2ccc(Cl)cc2)[C@@H]1O (stereo partly drawn) [Compound 35]
SSTR5 Inhib 0.5 uM % (inhibition of binding of SST-14 to SSTR5): 60%
SSTR5 Inhib 10 uM % (inhibition of binding of SST-14 to SSTR5): 95%
